Here are results for 22 compounds from patent US9365574B2, “Soluble guanylate cyclase activators” (Merck Sharp & Dohme Corp., priority 2010, dated 2016).

SMILES strings stand for the structures.

For the first experiment, the system named is Spontaneously hypertensive rats (SHR). Briefly: Acute Efficacy in Spontaneously Hypertensive Rats (SHR), telemetry blood pressure. The experiment is classed as in vivo, rat. Particulars: single oral dose 0.1 mpk P.O. The procedure, abridged:
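Male SHR with aortic telemetry catheters, 14-day recovery, conscious and freely moving; single oral gavage in 10% transcutol/20% Cremophor/70% water. BP sampled 30 s every 10 min, hourly averages minus prior-day vehicle baseline; value is maximum peak SBP decrease at stated mg/kg PO dose.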
On to `CC1(C(=O)NC2COC2)C(=O)Nc2nc(-c3nn(CCC(F)(F)C(F)(F)F)c4nc(Cl)ccc34)nc(N)c21` (stereo not shown) [Example 230, 4-amino-2-[6-chloro-1-(3,3,4,4,4-pentafluorobutyl)-1H-pyrazolo[3,4-b]pyridin-3-yl]-5-methyl-N-oxetan-3-yl-6-oxo-6,7-dihydro-5H-pyrrolo[2,3-d]pyrimidine-5-carboxamide], for which the “Maximum peak decrease of systolic blood pressure (SBP) in SHR, Category” value (“Maximum peak decrease” for short) was “A (Category A=SBP in SHRs<25 mmHg)”.

On to `CC1(C(=O)NC2CC2)C(=O)Nc2nc(-c3nn(CCC(F)(F)C(F)F)c4ncccc34)nc(N)c21` (stereo not shown) [Example 237, 4-amino-N-cyclopropyl-5-methyl-6-oxo-2-[1-(3,3,4,4-tetrafluorobutyl)-1H-pyrazolo[3,4-b]pyridin-3-yl]-6,7-dihydro-5H-pyrrolo[2,3-d]pyrimidine-5-carboxamide], for which the “Maximum peak decrease” value is listed as “B (Category B=SBP in SHRs 25-40 mmHg)”.

The experiment is the same for the next values; noted with them: single oral dose 0.3 mpk P.O.
`Cn1cc(NC(=O)C2(C)C(=O)Nc3nc(-c4nn(CCC(F)(F)C(F)(F)F)c5cc(Cl)ccc45)nc(N)c32)cn1` (stereo not shown) [Example 217, 4-amino-2-[6-chloro-1-(3,3,4,4,4-pentafluorobutyl)-1H-indazol-3-yl]-5-methyl-N-(1-methyl-1H-pyrazol-4-yl)-6-oxo-6,7-dihydro-5H-pyrrolo[2,3-d]pyrimidine-5-carboxamide]: the “Maximum peak decrease” value is “C (Category C=SBP in SHRs>40 mmHg)”.

For `C#CC1(C)C(=O)Nc2nc(-c3nn(CCC(F)(F)C(F)(F)F)c4ncccc34)nc(N)c21` (stereo not shown) [Example 219, 4-amino-5-ethynyl-5-methyl-2-[1-(3,3,4,4,4-pentafluorobutyl)-1H-pyrazolo[3,4-b]pyridin-3-yl]-5,7-dihydro-6H-pyrrolo[2,3-d]pyrimidin-6-one], the “Maximum peak decrease” value is listed as “C (Category C=SBP in SHRs>40 mmHg)”.

With `CC1(C(=O)NC2CC2)C(=O)Nc2nc(-c3nn(CCCC(F)(F)F)c4ncccc34)nc(N)c21` (stereo not shown) [Example 222, 4-amino-N-cyclopropyl-5-methyl-6-oxo-2-[1-(4,4,4-trifluorobutyl)-1H-pyrazolo[3,4-b]pyridin-3-yl]-6,7-dihydro-5H-pyrrolo[2,3-d]pyrimidine-5-carboxamide], the “Maximum peak decrease” value is “C (Category C=SBP in SHRs>40 mmHg)”.

Turning to `CC1(C(=O)NC2CC2)C(=O)Nc2nc(-c3nn(CCC(F)(F)C(F)(F)F)c4nc(C5CC5)ccc34)nc(N)c21` (stereo not shown) [Example 223, 4-amino-N-cyclopropyl-2-[6-cyclopropyl-1-(3,3,4,4,4-pentafluorobutyl)-1H-pyrazolo[3,4-b]pyridin-3-yl]-5-methyl-6-oxo-6,7-dihydro-5H-pyrrolo[2,3-d]pyrimidine-5-carboxamide], the “Maximum peak decrease” value is “B (Category B=SBP in SHRs 25-40 mmHg)”.

Regarding `CC1(c2nnc(C3CC3)o2)C(=O)Nc2nc(-c3nn(CCCC(F)(F)F)c4ncccc34)nc(N)c21` (stereo not shown) [Example 225, 4-amino-5-(5-cyclopropyl-1,3,4-oxadiazol-2-yl)-5-methyl-2-[1-(4,4,4-trifluorobutyl)-1H-pyrazolo[3,4-b]pyridin-3-yl]-5,7-dihydro-6H-pyrrolo[2,3-d]pyrimidin-6-one], the “Maximum peak decrease” value is on record as “C (Category C=SBP in SHRs>40 mmHg)”.

Regarding `CC1(C(=O)Nc2ccccn2)C(=O)Nc2nc(-c3nn(CCCC(F)(F)F)c4ncccc34)nc(N)c21` (stereo not shown) [Example 226, 4-amino-5-methyl-6-oxo-N-pyridin-2-yl-2-[1-(4,4,4-trifluorobutyl)-1H-pyrazolo[3,4-b]pyridin-3-yl]-6,7-dihydro-5H-pyrrrolo[2,3-d]pyrimidine-5-carboxamide], the “Maximum peak decrease” value was “B (Category B=SBP in SHRs 25-40 mmHg)”.

`CC1(C(=O)Nc2cccnc2)C(=O)Nc2nc(-c3nn(CCCC(F)(F)F)c4ncccc34)nc(N)c21` (stereo not shown) [Example 227]: the “Maximum peak decrease” value is on record as “B (Category B=SBP in SHRs 25-40 mmHg)”.

In the case of `CC1(C(N)=O)C(=O)Nc2nc(-c3nn(CCCC(F)(F)F)c4ncccc34)nc(N)c21` (stereo not shown) [Example 228, 4-amino-5-methyl-6-oxo-2-[1-(4,4,4-trifluorobutyl)-1H-pyrazolo[3,4-b]pyridin-3-yl]-6,7-dihydro-5H-pyrrolo[2,3-d]pyrimidine-5-carboxamide], the “Maximum peak decrease” value is “A (Category A=SBP in SHRs<25 mmHg)”.

Take `CC1(C(=O)NC2COC2)C(=O)Nc2nc(-c3nn(CCC(F)(F)C(F)(F)F)c4ncccc34)nc(N)c21` (stereo not shown) [Example 231, 4-amino-5-methyl-N-oxetan-3-yl-6-oxo-2-[1-(3,3,4,4,4-pentafluorobutyl)-1H-pyrazolo[3,4-b]pyridin-3-yl]-6,7-dihydro-5H-pyrrolo[2,3-d]pyrimidine-5-carboxamide]: the “Maximum peak decrease” value is “C (Category C=SBP in SHRs>40 mmHg)”.

Consider `CC1(c2ccccn2)C(=O)Nc2nc(-c3nn(CCC(F)(F)F)c4ncccc34)nc(N)c21` (stereo not shown) [Example 232, 4-amino-5-methyl-5-pyridin-2-yl-2-[1-(3,3,3-trifluoropropyl)-1H-pyrazolo[3,4-b]pyridin-3-yl]-5,7-dihydro-6H-pyrrolo[2,3-d]pyrimidin-6-one], for which the “Maximum peak decrease” value is “B (Category B=SBP in SHRs 25-40 mmHg)”.

Consider `CC1(C(=O)Nc2cccnc2)C(=O)Nc2nc(-c3nn(CCOC(F)(F)F)c4ncccc34)nc(N)c21` (stereo not shown) [Example 233, 4-amino-5-methyl-6-oxo-N-pyridin-3-yl-2-{1-[2-(trifluoromethoxy)ethyl]-1H-pyrazolo[3,4-b]pyridin-3-yl}-6,7-dihydro-5H-pyrrolo[2,3-d]pyrimidine-5-carboxamide], for which the “Maximum peak decrease” value is “B (Category B=SBP in SHRs 25-40 mmHg)”.

As for `CC1(C(=O)Nc2cccnc2)C(=O)Nc2nc(-c3nn(CCC(F)(F)C(F)(F)F)c4ncccc34)nc(N)c21` (stereo not shown) [Example 234, 4-amino-5-methyl-6-oxo-2-[1-(3,3,4,4,4-pentafluorobutyl)-1H-pyrazolo[3,4-b]pyridin-3-yl]-N-pyridin-3-yl-6,7-dihydro-5H-pyrrolo[2,3-d]pyrimidine-5-carboxamide], the “Maximum peak decrease” value is on record as “C (Category C=SBP in SHRs>40 mmHg)”.

Turning to `CC1(C(=O)NC2CCOC2)C(=O)Nc2nc(-c3nn(CCC(F)(F)C(F)(F)F)c4ncccc34)nc(N)c21` (stereo not shown) [Example 235, 4-amino-5-methyl-6-oxo-2-[1-(3,3,4,4,4-pentafluorobutyl)-1H-pyrazolo[3,4-b]pyridin-3-yl]-N-(tetrahydrofuran-3-yl)-6,7-dihydro-5H-pyrrolo[2,3-d]pyrimidine-5-carboxamide], the “Maximum peak decrease” value is given as “B (Category B=SBP in SHRs 25-40 mmHg)”.

As for `CC1(c2nncs2)C(=O)Nc2nc(-c3nn(CCCC(F)(F)F)c4ncccc34)nc(N)c21` (stereo not shown) [Example 236, 4-amino-5-methyl-5-(1,3,4-thiadiazol-2-yl)-2-[1-(4,4,4-trifluorobutyl)-1H-pyrazolo[3,4-b]pyridin-3-yl]-5,7-dihydro-6H-pyrrolo[2,3-d]pyrimidin-6-one], the “Maximum peak decrease” value is “B (Category B=SBP in SHRs 25-40 mmHg)”.

Regarding `CC1(C(=O)NC2CC2)C(=O)Nc2nc(-c3nn(CCC(F)F)c4ncccc34)nc(N)c21` (stereo not shown) [Example 238, 4-amino-N-cyclopropyl-2-[1-(3,3-difluoropropyl)-1H-pyrazolo[3,4-b]pyridin-3-yl]-5-methyl-6-oxo-6,7-dihydro-5H-pyrrolo[2,3-d]pyrimidine-5-carboxamide], the “Maximum peak decrease” value was “B (Category B=SBP in SHRs 25-40 mmHg)”.

The experiment is the same for the next values; noted with them: single oral dose 1 mpk P.O.
In the case of `Cn1ccc(NC(=O)C2(C)C(=O)Nc3nc(-c4nn(CCC(F)(F)C(F)(F)F)c5ncccc45)nc(N)c32)n1` (stereo not shown) [Example 218, 4-amino-5-methyl-N-(1-methyl-1H-pyrazol-3-yl)-6-oxo-2-[1-(3,3,4,4,4-pentafluorobutyl)-1H-pyrazolo[3,4-b]pyridin-3-yl]-6,7-dihydro-5H-pyrrolo[2,3-d]pyrimidine-5-carboxamide], the “Maximum peak decrease” value was “C (Category C=SBP in SHRs>40 mmHg)”.

Turning to `COc1ccc2c(-c3nc(N)c4c(n3)NC(=O)C4(C)C(N)=O)nn(CCC(F)(F)C(F)(F)F)c2n1` (stereo not shown) [Example 220, 4-amino-2-[6-methoxy-1-(3,3,4,4,4-pentafluorobutyl)-1H-pyrazolo[3,4-b]pyridin-3-yl]-5-methyl-6-oxo-6,7-dihydro-5H-pyrrolo[2,3-d]pyrimidine-5-carboxamide], the “Maximum peak decrease” value is reported as “B (Category B=SBP in SHRs 25-40 mmHg)”.

With `CC1(C(=O)NC2CC2)C(=O)Nc2nc(-c3nn(CCC(F)(F)F)c4nc(C#N)ccc34)nc(N)c21` (stereo not shown) [Example 221, 4-amino-2-[6-cyano-1-(3,3,3-trifluoropropyl)-1H-pyrazolo[3,4-b]pyridin-3-yl]-N-cyclopropyl-5-methyl-6-oxo-6,7-dihydro-5H-pyrrolo[2,3-d]pyrimidine-5-carboxamide], the “Maximum peak decrease” value is on record as “C (Category C=SBP in SHRs>40 mmHg)”.

As to `CC1(C(=O)NC2CC2)C(=O)Nc2nc(-c3nn(CCC(F)(F)F)c4nc(C5CC5)ccc34)nc(N)c21` (stereo not shown) [Example 224, 4-amino-N-cyclopropyl-2-[6-cyclopropyl-1-(3,3,3-trifluoropropyl)-1H-pyrazolo[3,4-b]pyridin-3-yl]-5-methyl-6-oxo-6,7-dihydro-5H-pyrrolo[2,3-d]pyrimidine-5-carboxamide], the “Maximum peak decrease” value is given as “B (Category B=SBP in SHRs 25-40 mmHg)”.

As for `Cn1cc(C2(C)C(=O)Nc3nc(-c4nn(CCC(F)(F)C(F)(F)F)c5cc(Cl)ccc45)nc(N)c32)cn1` (stereo not shown) [Example 229, 4-amino-2-[6-chloro-1-(3,3,4,4,4-pentafluorobutyl)-1H-indazol-3-yl]-5-methyl-5-(1-methyl-1H-pyrazol-4-yl)-5,7-dihydro-6H-pyrrolo[2,3-d]pyrimidin-6-one], the “Maximum peak decrease” value is reported as “C (Category C=SBP in SHRs>40 mmHg)”.
